46 compounds from article PMC6792352, “Limited Chemical Structural Diversity Found to Modulate Thyroid Hormone Receptor in the Tox21 Chemical Library” (Environmental Health Perspectives, 2019) can be followed below.

Counter-ions that a name gives are not always drawn. Like-named read-outs stand apart in the source and are kept apart here.

The subject of one data set is GH3-TRE-Luc cell line. To be noted: read-out: AC50 (uM) modified / 1000, viability, 1 nM T3 present, 24 h.
The next data set can be described thus: in vitro. The following applies: rat, gh3-tre-luc cells.

On to `Nc1ccn([C@@H]2O[C@H](CO)[C@@H](O)[C@@H]2O)c(=O)n1` [Cytarabine hydrochloride], for which the CC50 in the data set on GH3-TRE-Luc cell line (Tox21_110001=Tox21_300488) came out at 0.11 µM. Take `C[C@@H]1C[C@@H]([C@H](O)CC2CC(=O)NC(=O)C2)C(=O)[C@@H](C)C1` [Cycloheximide]: the CC50 in the data set with GH3-TRE-Luc cell line (Tox21_110001=Tox21_113580) worked out at 0.256 µM; with GH3-TRE-Luc cell line (Tox21_110001=Tox21_201158), 0.0922 µM; in the data set on GH3-TRE-Luc cell line (Tox21_110001=Tox21_303652), 1.49 µM. `Cc1ncc[nH]1` [2-Methylimidazole]: in the data set on GH3-TRE-Luc cell line (Tox21_110001=Tox21_111136), the CC50 is 0.0572 µM.

In the case of `N=C(N)c1ccc(OCCCCCOc2ccc(C(=N)N)cc2)cc1` [Pentamidine isethionate], the CC50 with GH3-TRE-Luc cell line (Tox21_110001=Tox21_110742) is 23.4 µM; with GH3-TRE-Luc cell line (Tox21_110001=Tox21_201722), 63.5 µM; in the data set on GH3-TRE-Luc cell line (Tox21_110001=Tox21_300312) it was 41 µM. Take `O=C1OC2(c3ccccc31)c1cc(I)c(O)c(I)c1Oc1c2cc(I)c(O)c1I` [FD&C Red 3]: the results for the CC50 in the data set on GH3-TRE-Luc cell line (Tox21_110001=Tox21_202932) and with GH3-TRE-Luc cell line (Tox21_110001=Tox21_302085) were 18.4 µM and 23.6 µM, respectively. As to `NC[C@H]1O[C@H](O[C@H]2[C@H](O)[C@@H](O[C@H]3O[C@H](CO)[C@@H](O)[C@H](N)[C@H]3O)[C@H](N)C[C@@H]2N)[C@H](O)[C@@H](O)[C@@H]1O` [Kanamycin A sulfate], the CC50 with GH3-TRE-Luc cell line (Tox21_110001=Tox21_202817) came to 3.08 µM. In the case of `c1ccc(C(O[C@@H]2CCCN(CCc3ccc4c(c3)OCO4)C2)c2ccccc2)cc1` [Zamifenacin], in the data set on GH3-TRE-Luc cell line (Tox21_110001=Tox21_300210), the CC50 came to 40 µM.

`O=C1C2CC=CCC2C(=O)N1SC(Cl)(Cl)Cl` (centres unmarked) [Captan]: the CC50 in the data set on GH3-TRE-Luc cell line (Tox21_110001=Tox21_111065) was determined as 4.99 µM; in the data set on GH3-TRE-Luc cell line (Tox21_110001=Tox21_201276) it was 76 µM; in the data set on GH3-TRE-Luc cell line (Tox21_110001=Tox21_300772), 2.54 µM. Regarding `C[C@]12CC[C@@H]3c4ccc(O)cc4CC[C@H]3[C@@H]1CC[C@@H]2OC(=O)CCC1CCCC1` [Estradiol cypionate], the CC50 with GH3-TRE-Luc cell line (Tox21_110001=Tox21_110003) stood at 32.5 µM; with GH3-TRE-Luc cell line (Tox21_110001=Tox21_112331), 43.4 µM; with GH3-TRE-Luc cell line (Tox21_110001=Tox21_301818) it was 86.1 µM. On to `COc1ccc(CCN2CCC(Nc3nc4ccccc4n3Cc3ccc(F)cc3)CC2)cc1` [Astemizole], for which the CC50 came to 4.42 µM in the data set with GH3-TRE-Luc cell line (Tox21_110001=Tox21_110680) and 0.889 µM with GH3-TRE-Luc cell line (Tox21_110001=Tox21_200095). Regarding `CCCCCCCCCCCCCC[N+](C)(C)C` [Tetradonium bromide], the CC50 is 5.04 µM in the data set on GH3-TRE-Luc cell line (Tox21_110001=Tox21_112327) and 8.21 µM in the data set on GH3-TRE-Luc cell line (Tox21_110001=Tox21_302067).

Take `CN1CCCCC1CCN1c2ccccc2Sc2ccc([S+](C)[O-])cc21` (centres unmarked) [Mesoridazine]: the CC50 in the data set on GH3-TRE-Luc cell line (Tox21_110001=Tox21_112018) came out at 18.9 µM. Turning to `CCCCCCCCCCn1cc[n+](C)c1` [1-Decyl-3-methylimidazolium trifluoromethanesulfonate], the CC50 with GH3-TRE-Luc cell line (Tox21_110001=Tox21_200593) came out at 6.68 µM. For the compound `[H]/N=C(\N/C(=N/[H])NCCCCCCNC(=N)NC(=N)Nc1ccc(Cl)cc1)Nc1ccc(Cl)cc1` [Chlorhexidine dihydrochloride], the CC50 in the data set with GH3-TRE-Luc cell line (Tox21_110001=Tox21_302689) was determined as 5.24 µM. `CO[C@H]1C[C@@H]2CC[C@@H](C)[C@@](O)(O2)C(=O)C(=O)N2CCCC[C@H]2C(=O)O[C@H]([C@H](C)C[C@@H]2CC[C@@H](O)[C@H](OC)C2)CC(=O)[C@H](C)/C=C(\C)[C@@H](O)[C@@H](OC)C(=O)[C@H](C)C[C@H](C)/C=C/C=C/C=C/1C` [Sirolimus]: the CC50 is 0.00123 µM in the data set with GH3-TRE-Luc cell line (Tox21_110001=Tox21_110870) and 0.00263 µM in the data set on GH3-TRE-Luc cell line (Tox21_110001=Tox21_112750). Take `Oc1cc(Cl)c(Cl)cc1Cl` [2,4,5-Trichlorophenol]: the CC50 at 24 h in the data set “in vitro” (AC50 (uM) modified / 1000, Tox21_110001=Tox21_111100, viability, 1 nM T3 present, 24 h) is more than 50 µM; in “in vitro” (AC50 (uM) modified / 1000, Tox21_110001=Tox21_201545, viability, 1 nM T3 present, 24 h), more than 90 µM. In “in vitro” (AC50 (uM) modified / 1000), `Cc1ccccc1OCC(O)CNCCOc1ccc(C(N)=O)cc1` (centres unmarked) [Tolamolol] returned a CC50 at 24 h of 13.4 µM.

Regarding `CC1(CN2CCC(n3c(=O)[nH]c4ccccc43)CC2)OCc2ccccc2-n2cccc21` (centres unmarked) [Zaldaride], in “in vitro” (AC50 (uM) modified / 1000), the CC50 at 24 h is 32.7 µM.

In the data set “in vitro” (AC50 (uM) modified / 1000), `O=CN1CCOCC1` [4-Morpholinecarboxaldehyde] showed a CC50 at 24 h of more than 90 µM.

In turn, `COc1ccc2nc(NC(=O)Nc3ccccc3)sc2c1` [Frentizole] showed a CC50 at 24 h in “in vitro” (AC50 (uM) modified / 1000) of more than 50 µM.

For the compound `CC(C)=CCCC(C)CCOC=O` (centres unmarked) [3,7-Dimethyloct-6-en-1-yl formate], in the data set “in vitro” (AC50 (uM) modified / 1000), the CC50 at 24 h is more than 90 µM. The same measure, in the same setting: the value for `Nc1nc[nH]n1` [Amitrole] was more than 90 µM; that for `CCCN(CCC)CCc1cccc2c1CC(=O)N2` [Ropinirole] was more than 50 µM; that for `CC(C)c1nc(N(C)S(C)(=O)=O)nc(-c2ccc(F)cc2)c1/C=C/[C@@H](O)C[C@@H](O)CC(=O)O` [Rosuvastatin calcium] was more than 50 µM.

On to `CN1C[C@@H]2C[C@H]1CN2c1cc2c(cc1F)c(=O)c(C(=O)O)cn2C1CC1` [Danofloxacin], for which the CC50 at 24 h in “in vitro” (AC50 (uM) modified / 1000) is more than 50 µM. Still for that read-out and setting: in the case of `N#CC(Br)(Br)C(N)=O` [2,2-Dibromo-3-nitrilopropionamide] it was more than 90 µM. Regarding `CCN(CC)c1ccccc1` [N,N-Diethylaniline], the CC50 at 24 h in “in vitro” (AC50 (uM) modified / 1000) was more than 90 µM. On the same count and under the same terms, the value for `C[C@@H](O)[C@H]1C(=O)N2C(C(=O)O)=C([C@H]3CCCO3)S[C@H]12` [Fropenem] was more than 50 µM. Compound `Cc1ccc(C)c(S(=O)(=O)O)c1` [2,5-Dimethylbenzenesulfonic acid] yielded a CC50 at 24 h in “in vitro” (AC50 (uM) modified / 1000) of more than 80 µM.

In the case of `Cc1cc(C2CC2)nc(Nc2ccccc2)n1` [Cyprodinil], in “in vitro” (AC50 (uM) modified / 1000), the CC50 at 24 h is 74.9 µM. On the same count and under the same terms, the value for `O=S1OCCO1` [Glycol sulfite] was more than 100 µM; that for `CCOC(=O)C1CC(=O)C(=C(O)C2CC2)C(=O)C1` (centres unmarked) [Trinexapac-ethyl] was more than 90 µM; that for `Cc1ccc2nc(N)[nH]c(=O)c2c1Sc1ccncc1` [Nolatrexed dihydrochloride] was more than 50 µM. In the data set “in vitro” (AC50 (uM) modified / 1000), `CCC(C)(C)c1ccc(CC(C)CN2C[C@@H](C)O[C@@H](C)C2)cc1` (some centres unmarked) [Amorolfine] registered a CC50 at 24 h of 11.1 µM. Still for that read-out and setting: in the case of `Cc1ccc(C=O)s1` [5-Methyl-2-thiophenecarboxaldehyde] it was more than 90 µM. Compound `Nc1ccn([C@H]2CC[C@@H](CO)O2)c(=O)n1` [2',3'-Dideoxycytidine] registered a CC50 at 24 h in the data set “in vitro” (AC50 (uM) modified / 1000) of more than 50 µM. Same read-out and setting: the value for `CCCCCCCCCCCCSC#N` [Lauryl thiocyanate] was more than 90 µM; that for `CCC(CC)CO` [2-Ethyl-1-butanol] was more than 90 µM.

On to `CN1CCCC(=C(c2cccs2)c2cccs2)C1` [Tipepidine], for which the CC50 at 24 h in “in vitro” (AC50 (uM) modified / 1000, Tox21_110001=Tox21_112428, viability, 1 nM T3 present, 24 h) was more than 50 µM. On to `CNC1CCCN(c2c(F)cc3c(=O)c(C(=O)O)cn(C4CC4)c3c2OC)C1` (centres unmarked) [Balofloxacin], for which, in the data set “in vitro” (AC50 (uM) modified / 1000), the CC50 at 24 h was more than 50 µM.

`CCCCCCCCCCCOC(=O)c1ccccc1C(=O)OCCCCCCCCCCC` [Diundecyl phthalate] registered a CC50 at 24 h in the data set “in vitro” (AC50 (uM) modified / 1000) of more than 50 µM. The same measure, in the same setting: in the case of `CCCCCCCCCCCCCC[P+](CCCCCC)(CCCCCC)CCCCCC` [Trihexyltetradecylphosphonium chloride] it was 5.15 µM; in that of `CC1=C(C=O)C(C)(C)CCC1` [beta-Cyclocitral], more than 90 µM. `CCCCC(CC)COP(=O)(O)OCC(CC)CCCC` (centres unmarked) [Bis(2-ethylhexyl) phosphate] came in with a CC50 at 24 h in the data set “in vitro” (AC50 (uM) modified / 1000) of 63.4 µM. Same read-out and setting: in the case of `ClC(Cl)(Cl)Cl` [Carbon tetrachloride] it was more than 90 µM; in that of `OCCN1C[C@H](O)[C@@H](O)[C@H](O)[C@H]1CO` [Miglitol], more than 50 µM.
